Source: paper PMC11844072, “Novel 5,6-dichlorobenzimidazole derivatives as dual BRAFWT and BRAFV600E inhibitors: design, synthesis, anti-cancer activity and molecular dynamics simulations” (BMC Chemistry, 2025)

Key:
Test in all cases: NCI 60 single concentration growth inhibition
Assay type in all cases: cell-based, human
TK-10 = conditions: Homo sapiens, TK-10, Renal cancer, read-out: GI%
Protocol: (§1) The synthesized dichlorobenzimidazoles 10a–p were assayed for their influence on divers cancer cell lines according to the method presented in the Additional file A.
(§2) 5. Screening of cytotoxic activity against a panel of sixty human tumor cell lines
(§3) The selected compounds by NCI were evaluated for their anticancer activity in a two-stage process. First, these compounds were screened against the full NCI 60 cell lines panel at a single high dose of 10 µM. Then, the output from the single dose screen is reported as a mean graph. […]
(§4) Assay protocol. The human tumor cell lines of the cancer screening panel are grown in RPMI 1640 medium containing 5% fetal bovine serum and 2 mM L-glutamine. For a typical screening experiment, cells are inoculated into 96 well microtiter plates in 100 µL at plating densities ranging from 5000 to 40,000 cells/well depending on the doubling time of individual cell lines. After cell inoculation, the microtiter plates are incubated at 37 °C, 5% CO 2, 95% air and 100% relative humidity for 24 h prior to addition of the experimental drugs.
(§5) After 24 h, two plates of each cell line are fixed in situ with TCA, to represent a measurement of the cell population for each cell line at the time of drug addition (Tz). The experimental drugs are solubilized in dimethyl sulfoxide at 400-fold the desired final maximum test concentration and stored frozen prior to use. At the time of drug addition, an aliquot of frozen concentrate is thawed and diluted to twice the desired final maximum test concentration with complete medium containing 50 µg/mL gentamicin. Additional four, 10-fold or ½ log serial dilutions are made to provide a total of five drug concentrations plus control.
(§6) Aliquots of […] of these different drug dilutions are added to the appropriate microtiter wells already containing […] of medium, resulting in the required final drug concentrations.
(§7) Following drug addition, the plates are incubated for an additional 48 h at 37 °C, 5% CO 2, 95% air, and 100% relative humidity. For adherent cells, the assay is terminated by the addition of cold TCA.
(§8) Cells are fixed in situ by the gentle addition of 50 µL of cold 50% (w/v) TCA (final concentration, 10% TCA) and incubated for 60 min at 4 °C. The supernatant is discarded, and the plates are washed five times with tap water and air dried. Sulforhodamine B (SRB) solution ([…]) at 0.4% (w/v) in 1% acetic acid is added to each well, and plates are incubated for 10 min at room temperature. After staining, unbound dye is removed by washing five times with 1% acetic acid and the plates are air dried. Bound stain is subsequently solubilized with 10 mM trizma base, and the absorbance is read on an automated plate reader at a wavelength of 515 nm. For suspension cells, the methodology is […]
(§9) the same except that the assay is terminated by fixing settled cells at the bottom of the wells by gently adding 50 µl of 80% TCA (final concentration, 16% TCA). Using the seven absorbance measurements [time zero, (Tz), control growth, (C), and test growth in the presence of drug at the five concentration levels (Ti)], the percentage growth is calculated at each of the drug concentrations […]
(§10) Percentage growth inhibition is calculated as: [(Ti Tz)/(C–Tz)] x 100 for concentrations for which Ti>/=Tz and [(Ti-Tz)/Tz] x 100 for concentrations for which Ti < Tz. […]
(§11) Results for each compound were reported as a mean graph of the percent growth of the treated cells when compared to the untreated control cells. There after obtaining the results for one dose assay, analysis of historical Development Therapeutics Programme (DTP) was performed and compounds which satisfies predetermined threshold inhibition criteria is selected for NCI full panel 5 dose assay.

LOX IMVIL = conditions: Homo sapiens, Melanoma, read-out: GI%
Protocol: as §1, §2, §3, §4, §5, §6, §7, §8, §9, §10, §11

HCT-15 = conditions: Homo sapiens, HCT-15, Colon cancer, read-out: GI%
Protocol: as §1, §2, §3, §4, §5, §6, §7, §8, §9, §10, §11

HT29 = conditions: Homo sapiens, HT-29, HT29, Colon cancer, read-out: GI%
Protocol: as §1, §2, §3, §4, §5, §6, §7, §8, §9, §10, §11

DU-145 = conditions: Homo sapiens, DU-145, Prostate cancer, read-out: GI%
Protocol: as §1, §2, §3, §4, §5, §6, §7, §8, §9, §10, §11

OVCAR-3 = conditions: Homo sapiens, OVCAR-3, Ovarian cancer, read-out: GI%
Protocol: as §1, §2, §3, §4, §5, §6, §7, §8, §9, §10, §11

U251 = conditions: Homo sapiens, U-251, U251, CNS cancer, read-out: GI%
Protocol: as §1, §2, §3, §4, §5, §6, §7, §8, §9, §10, §11

NCI-H522 = conditions: Homo sapiens, NCI-H522, Non-small cell lung cancer, read-out: GI%
Protocol: as §1, §2, §3, §4, §5, §6, §7, §8, §9, §10, §11

OVCAR-4 = conditions: Homo sapiens, OVCAR-4, Ovarian cancer, read-out: GI%
Protocol: as §1, §2, §3, §4, §5, §6, §7, §8, §9, §10, §11

NCI-H23 = conditions: Homo sapiens, NCI-H23, Non-small cell lung cancer, read-out: GI%
Procedure, shortened: (§12)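 For the single-dose testing, a 10 µM concentration was applied for 48 h. Adherent lines were fixed with cold TCA, stained with SRB and read at 515 nm, and the result was reported as percent growth versus untreated cells.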

PC-3 = conditions: Homo sapiens, PC-3, Prostate cancer, read-out: GI%
Procedure, shortened: as §12

SF-295 = conditions: Homo sapiens, SF-295, CNS cancer, read-out: GI%
Procedure, shortened: as §12

SK-OV-3 = conditions: Homo sapiens, SK-OV-3, Ovarian cancer, read-out: GI%
Procedure, shortened: as §12

HOP-62 = conditions: Homo sapiens, HOP-62, Non-small cell lung cancer, read-out: GI%
Procedure, shortened: as §12

CAKI-1 = conditions: Homo sapiens, CAKI-1, Renal cancer, read-out: GI%
Procedure, shortened: as §12

MDA-MB-468 = conditions: Homo sapiens, MDA-MB-468, Breast cancer, read-out: GI%
Procedure, shortened: as §12

A498 = conditions: Homo sapiens, A498, Renal cancer, read-out: GI%
Procedure, shortened: as §12

ACHN = conditions: Homo sapiens, Renal cancer, read-out: GI%
Procedure, shortened: as §12

EKVX = conditions: Homo sapiens, Non-small cell lung cancer, read-out: GI%
Procedure, shortened: as §12

SMILES | inhibition at 10 µM (TK-10) [%] | inhibition at 10 µM (LOX IMVIL) [%] | inhibition at 10 µM (HCT-15) [%] | inhibition at 10 µM (HT29) [%] | inhibition at 10 µM (DU-145) [%] | inhibition at 10 µM (OVCAR-3) [%] | inhibition at 10 µM (U251) [%] | inhibition at 10 µM (NCI-H522) [%] | inhibition at 10 µM (OVCAR-4) [%] | inhibition at 10 µM (NCI-H23) [%] | inhibition at 10 µM (PC-3) [%] | inhibition at 10 µM (SF-295) [%] | inhibition at 10 µM (SK-OV-3) [%] | inhibition at 10 µM (HOP-62) [%] | inhibition at 10 µM (CAKI-1) [%] | inhibition at 10 µM (MDA-MB-468) [%] | inhibition at 10 µM (A498) [%] | inhibition at 10 µM (ACHN) [%] | inhibition at 10 µM (EKVX) [%]
COC(=O)COc1ccc(C=NNC(=O)Cn2c(-c3ccc(OC)cc3)nc3cc(Cl)c(Cl)cc32)cc1 [Compound 10h, Methyl-2-(4-((2-(2-(5,6-dichloro-2-(4-methoxyphenyl)-1H-benzo[d]imidazol-1-yl)acetyl)hydrazono)methyl)phenoxy)acetate] | < 5 | 39.5 | 40.3 | 93.4 | 158 | 93 | 10.1 | 7.31 | < 5 | < 5 | 74.4 | < 5 | < 5 | < 5 | 5.89 | 177 | < 5 | 106 | < 5
CCOC(=O)C(C)Oc1ccc(C=NNC(=O)Cn2c(-c3ccc(OC)cc3)nc3cc(Cl)c(Cl)cc32)cc1 (stereo not shown) [Compound 10j, Ethyl-2-(4-((2-(2-(5,6-dichloro-2-(4-methoxyphenyl)-1H-benzo[d]imidazol-1-yl)acetyl) hydrazono)methyl)phenoxy)propanoate] | < 5 | 18.4 | 37.1 | 39.2 | 85.2 | < 5 | 5.26 | 32.6 | 9.77 | 20.8 | 38.5 | 21 | 5.5 | < 5 | 9.1 | 43.9 | < 5 | 18 | 21.7
COc1ccc(-c2nc3cc(Cl)c(Cl)cc3n2CC(=O)NN=Cc2ccc(OC)c(O)c2)cc1 [Compound 10k, 2-(5,6-Dichloro-2-(4-methoxyphenyl)-1H-benzo[d]imidazol-1-yl)-N'-(3-hydroxy-4-methoxybenzylidene)acetohydrazide] | 28 | 38.4 | 47.2 | 30.2 | 26.4 | 23.3 | 38 | 37.8 | 47.3 | 21.1 | 56.6 | 50 | < 5 | < 5 | 48.2 | 71.2 | 29.7 | 36.6 | 56.4
COc1ccc(-c2nc3cc(Cl)c(Cl)cc3n2CC(=O)NN=Cc2ccc(O)c(OC)c2)cc1 [Compound 10l, 2-(5,6-Dichloro-2-(4-methoxyphenyl)-1H-benzo[d]imidazol-1-yl)-N'-(4-hydroxy-3-methoxybenzylidene)acetohydrazide] | 16.2 | 38.5 | 51.5 | 13 | 31.8 | 28.7 | 25.8 | 23.5 | 52.9 | 15 | 54.2 | 38.1 | 6.44 | 12.4 | 55.3 | 99 | 16.2 | 32.4 | 51.9
